Usually IC50 stands for the concentration at which inhibition is half-maximal.

This passage reports IC50 results from patent US11780830B2, “Triazolone derivatives or salts thereof and pharmaceutical compositions comprising the same” (YUHAN CORPORATION, priority 2018, dated 2023).

Counter-ions that a name gives are not always drawn. A value given as a limit tells only on which side of the number the result lay.

What all share (type): biochemical
The target in one experiment is T1, recombinant human VAP-1 (Homo sapiens, UniProt Q16853).
T1 construct: purchased R&D systems
T1 sequence (Q16853 1-763): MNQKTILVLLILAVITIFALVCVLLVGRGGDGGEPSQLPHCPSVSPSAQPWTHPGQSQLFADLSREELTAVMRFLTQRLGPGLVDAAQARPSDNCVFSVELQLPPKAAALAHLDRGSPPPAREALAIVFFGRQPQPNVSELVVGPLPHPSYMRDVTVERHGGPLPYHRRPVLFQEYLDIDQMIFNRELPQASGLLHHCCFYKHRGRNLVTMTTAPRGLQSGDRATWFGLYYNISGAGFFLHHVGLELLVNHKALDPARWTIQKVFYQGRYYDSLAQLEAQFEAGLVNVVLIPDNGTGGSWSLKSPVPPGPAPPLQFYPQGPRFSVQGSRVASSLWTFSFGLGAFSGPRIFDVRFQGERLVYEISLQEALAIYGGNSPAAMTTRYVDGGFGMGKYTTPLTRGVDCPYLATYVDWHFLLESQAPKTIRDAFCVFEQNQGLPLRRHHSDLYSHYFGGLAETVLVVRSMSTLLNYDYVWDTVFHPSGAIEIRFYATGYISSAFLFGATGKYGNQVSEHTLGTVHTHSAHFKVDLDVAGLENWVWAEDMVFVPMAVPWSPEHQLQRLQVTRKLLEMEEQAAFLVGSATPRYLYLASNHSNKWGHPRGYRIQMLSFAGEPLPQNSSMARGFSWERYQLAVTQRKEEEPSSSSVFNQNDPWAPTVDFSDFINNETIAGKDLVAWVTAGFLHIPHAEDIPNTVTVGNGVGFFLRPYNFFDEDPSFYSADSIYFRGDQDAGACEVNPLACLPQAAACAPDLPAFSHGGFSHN
As to the kind of experiment: Activity on recombinant human VAP-1, HRP-coupled Amplex Red hydrogen peroxide assay. To be noted: substrate 1 mM benzylamine; compound incubated with enzyme at 37° C. for 30 minutes; pH 7.4; read-out: Inhibitory Activity (IC50, nM) human VAP-1. The protocol: (§1) The compounds according to the present technology were evaluated in terms of activity on recombinant human VAP-1 (R&D systems) by measuring the level of hydrogen peroxide in horseradish peroxidase (HRP)-coupled reaction using Amplex Red Hydrogen Peroxide Assay Kit (Molecular Probes, Invitrogen, USA). The experiment was carried out at room temperature using benzylamine as a substrate. In the HRP-coupled reaction, hydrogen peroxide oxidation of 10-acetyl-3,7-dihydroxyphenoxazine (Amplex Red reagent) produces resorufin, which is a highly fluorescent compound. Briefly, the test compound was dissolved in dimethyl sulfoxide (DMSO) at a concentration of 20 mM. The dose-response assessment was made by 1:3 serial dilution in DMSO, thereby creating an 8 point curve. The concentration of the upper part was controlled according to the efficacy of the compounds, followed by dilution with a reaction buffer solution to obtain a final DMSO concentration less than 1%. To each well of a 96 black well plate, human VAP-1 purified in 50 mM sodium phosphate buffer solution (pH7.4) was added. The test compounds dissolved in DMSO were incubated with the human VAP-1 enzymes at 37° C. for 30 minutes. After 30-minute incubation, each well is added with a reaction mixture containing 200 uM Amplex Red reagent prepared from 50 mM sodium phosphate buffer solution (pH 7.4), 1 mM benzylamine, and 1 U/mL HRP. Fluorescence intensity was measured at several time points during 1-2 hours using a microplate reader (Flexstation3, Molecular Devices) under the wavelength condition exciting at 544 nm and reading the emission at 590 nm. The inhibitory effect of the compounds was measured as a decrease (%) in the signal rate as compared to the control group without any inhibitor (only diluted DMSO). Data was fixed to a logistic model with four variables and IC50 value was calculated using GraphPad Prism program.

Experiment [1] concerns the target T2, recombinant human MAO-A (monoamine oxidase-A) (Homo sapiens, UniProt P21397).
T2 construct: purchased Sigma-Aldrich
T2 sequence (P21397 1-527): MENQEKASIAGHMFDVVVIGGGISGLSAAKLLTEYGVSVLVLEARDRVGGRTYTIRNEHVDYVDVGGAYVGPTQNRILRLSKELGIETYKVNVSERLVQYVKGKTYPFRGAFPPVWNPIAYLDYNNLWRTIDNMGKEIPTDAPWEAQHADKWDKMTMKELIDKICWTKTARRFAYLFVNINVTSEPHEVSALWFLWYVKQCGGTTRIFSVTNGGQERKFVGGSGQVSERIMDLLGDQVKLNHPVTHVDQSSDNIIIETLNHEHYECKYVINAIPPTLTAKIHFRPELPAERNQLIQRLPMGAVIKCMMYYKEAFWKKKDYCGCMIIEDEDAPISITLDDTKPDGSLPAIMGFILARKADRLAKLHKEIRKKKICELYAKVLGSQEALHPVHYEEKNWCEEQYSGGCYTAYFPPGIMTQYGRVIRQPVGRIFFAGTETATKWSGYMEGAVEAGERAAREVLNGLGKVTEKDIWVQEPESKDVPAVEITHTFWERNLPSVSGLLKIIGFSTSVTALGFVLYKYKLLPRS
As to the kind of experiment: Activity on recombinant human MAO-A, method similar to the VAP-1 assay. To be noted: substrate 0.5 mM tyramine; read-out: Inhibitory Activity (IC50, nM) MAO-A. The protocol: as §1
(§2) In addition, the compounds according to the present technology were evaluated in terms of activity on a recombinant human MAO-A (monoamine oxidase-A, Sigma-Aldrich) and a recombinant human MAO-B (monoamine oxidase-B, Sigma-Aldrich) by using as substrates, 0.5 mM tyramine and 1 mM benzylamine, respectively, with a method similar to the activity evaluation method for recombinant human VAP-1. The compounds according to the present technology were also evaluated in terms of activity on a recombinant human DAO (diamine oxidase, R&D systems) by using as a substrate 1 mM putrescine with a method similar to the activity evaluation method for recombinant human VAP-1.

For experiment [2], the target named is T3, recombinant human MAO-B (monoamine oxidase-B) (Homo sapiens, UniProt P27338).
T3 construct: purchased Sigma-Aldrich
T3 sequence (P27338 1-520): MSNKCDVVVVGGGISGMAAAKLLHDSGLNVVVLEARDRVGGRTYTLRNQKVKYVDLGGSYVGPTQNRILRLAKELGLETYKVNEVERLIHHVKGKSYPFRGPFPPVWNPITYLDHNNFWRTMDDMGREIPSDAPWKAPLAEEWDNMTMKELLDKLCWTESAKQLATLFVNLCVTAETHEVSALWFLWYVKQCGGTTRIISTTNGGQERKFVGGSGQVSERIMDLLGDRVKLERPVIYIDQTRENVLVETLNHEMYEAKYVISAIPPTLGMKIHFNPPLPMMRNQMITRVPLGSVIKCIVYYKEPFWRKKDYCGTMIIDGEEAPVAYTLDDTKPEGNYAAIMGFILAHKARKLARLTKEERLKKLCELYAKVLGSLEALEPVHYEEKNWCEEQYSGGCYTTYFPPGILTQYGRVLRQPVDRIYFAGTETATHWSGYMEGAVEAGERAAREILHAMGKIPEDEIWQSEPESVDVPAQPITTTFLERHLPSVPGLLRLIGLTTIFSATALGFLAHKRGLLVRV
As to the kind of experiment: Activity on recombinant human MAO-B, method similar to the VAP-1 assay. The note with it: substrate 1 mM benzylamine; read-out: Inhibitory Activity (IC50, nM) MAO-B. The protocol: as §1, §2

The target in experiment [3] is T4, recombinant human DAO (diamine oxidase) (Homo sapiens, UniProt P19801).
T4 construct: purchased R&D systems
T4 sequence (P19801 20-751): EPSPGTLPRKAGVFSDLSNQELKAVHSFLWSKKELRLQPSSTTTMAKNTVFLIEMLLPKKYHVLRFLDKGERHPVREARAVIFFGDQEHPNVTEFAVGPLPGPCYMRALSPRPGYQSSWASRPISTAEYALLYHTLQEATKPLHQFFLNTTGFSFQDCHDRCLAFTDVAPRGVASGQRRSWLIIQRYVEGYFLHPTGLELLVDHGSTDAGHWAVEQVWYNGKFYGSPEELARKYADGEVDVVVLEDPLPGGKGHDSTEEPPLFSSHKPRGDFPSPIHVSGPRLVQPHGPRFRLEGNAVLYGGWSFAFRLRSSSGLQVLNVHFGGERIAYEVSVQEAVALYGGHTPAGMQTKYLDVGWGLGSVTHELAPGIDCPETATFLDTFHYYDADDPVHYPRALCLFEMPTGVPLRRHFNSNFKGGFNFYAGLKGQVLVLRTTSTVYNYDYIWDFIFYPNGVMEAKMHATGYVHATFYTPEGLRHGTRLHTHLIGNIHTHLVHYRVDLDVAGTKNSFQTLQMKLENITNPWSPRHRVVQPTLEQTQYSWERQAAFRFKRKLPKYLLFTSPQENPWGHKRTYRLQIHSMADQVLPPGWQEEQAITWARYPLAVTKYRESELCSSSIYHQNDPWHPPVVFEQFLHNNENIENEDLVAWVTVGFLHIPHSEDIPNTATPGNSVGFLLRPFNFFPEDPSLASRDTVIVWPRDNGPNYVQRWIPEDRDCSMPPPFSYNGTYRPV
The experiment in a line: Activity on recombinant human DAO, method similar to the VAP-1 assay. The note with it: substrate 1 mM putrescine; read-out: Inhibitory Activity (IC50, nM) DAO. As for the experimental part: as §1, §2

As to `NC/C(=C\F)Cn1ncn(Cc2ccc(C#Cc3cccnc3)s2)c1=O` [Example 127, 2-[(2E)-2-(aminomethyl)-3-fluoroprop-2-en-1-yl]-4-[5-(pyridin-3-ylethynyl)thiophen-2-yl]methyl-2,4-dihydro-3H-1,2,4-triazol-3-one hydrochloride], the IC50 on recombinant human VAP-1 was 0.8 nM; in experiment [1], more than 100000 nM; in experiment [2], 150 nM; in experiment [3], 910 nM.

As to `Cc1cc(-c2ccc3sc(Cn4cnn(C/C(=C/F)CN)c4=O)cc3c2)cc2c1NC(=O)CC2` [Example 210, 6-[2-({1-[(2E)-2-(aminomethyl)-3-fluoroprop-2-en-1-yl]-5-oxo-1,5-dihydro-4H-1,2,4-triazol-4-yl}methyl)-1-benzothiophen-5-yl]-8-methyl-3,4-dihydroquinolin-2(1H)-one], the IC50 on recombinant human VAP-1 was 1.7 nM; in experiment [1], more than 100000 nM; in experiment [2] it was 9200 nM; in experiment [3], 590 nM.

Regarding `NC/C(=C\F)Cn1ncn(Cc2ccc(C#Cc3cccc(N)c3)s2)c1=O` [Example 125, 2-[(2E)-2-(aminomethyl)-3-fluoroprop-2-en-1-yl]-4-(5-[(3-aminophenyl)ethynyl]thiophen-2-ylmethyl)-2,4-dihydro-3H-1,2,4-triazol-3-one hydrochloride], the IC50 on recombinant human VAP-1 was 3.5 nM; in experiment [1], more than 100000 nM; in experiment [2], 2100 nM; in experiment [3], 1600 nM.

Take `Cc1c(-c2ccc(Cn3cnn(C/C(=C/F)CN)c3=O)s2)ccc2c1NC(=O)CO2` [Example 92, 6-[5-[[1-[(E)-2-(aminomethyl)-3-fluoro-allyl]-5-oxo-1,2,4-triazol-4-yl]methyl]-2-thienyl]-5-methyl-4H-1,4-benzoxazin-3-one hydrochloride]: the IC50 is 0.2 nM at recombinant human VAP-1, 29000 nM in experiment [1], 600 nM in experiment [2] and 350 nM in experiment [3].

Consider `CN1C(=O)CCc2cc(-c3ccc(Cn4cnn(C/C(=C/F)CN)c4=O)s3)ccc21` [Example 79, 6-[5-(1-[(2E)-2-(aminomethyl)-3-fluoroprop-2-en-1-yl]-5-oxo-1,5-dihydro-4H-1,2,4-triazol-4-ylmethyl)thiophen-2-yl]-1-methyl-3,4-dihydroquinolin-2(1H)-one hydrochloride], for which the IC50 at recombinant human VAP-1 is 0.1 nM; in experiment [1], more than 100000 nM; in experiment [2], 1900 nM; in experiment [3], 210 nM.

As for `COC(=O)c1ccc(-c2ccc(Cn3cnn(C/C(=C/F)CN)c3=O)s2)cc1` [Example 10, methyl 4-[5-(1-[(2E)-2-(aminomethyl)-3-fluoroprop-2-en-1-yl]-5-oxo-1,5-dihydro-4H-1,2,4-triazol-4-ylmethyl)thiophen-2-yl]benzoate hydrochloride], the IC50 was 1.5 nM on recombinant human VAP-1, more than 100000 nM in experiment [1], 77 nM in experiment [2] and 500 nM in experiment [3].

Regarding `COC(=O)c1cc(F)cc(-c2ccc(Cn3cnn(C/C(=C/F)CN)c3=O)s2)c1` [Example 13, methyl 3-[5-(1-[(2E)-2-(aminomethyl)-3-fluoroprop-2-en-1-yl]-5-oxo-1,5-dihydro-4H-1,2,4-triazol-4-ylmethyl)thiophen-2-yl]-5-fluorobenzoate hydrochloride], the IC50 on recombinant human VAP-1 is 0.8 nM; in experiment [1], more than 100000 nM; in experiment [2], 260 nM; in experiment [3], 320 nM.

As to `Cn1c(-c2ccc(Cn3cnn(C/C(=C/F)CN)c3=O)s2)cnc1Cl` [Example 154, 2-[(2E)-2-(aminomethyl)-3-fluoroprop-2-en-1-yl]-4-{[5-(2-chloro-1-methyl-1H-imidazol-5-yl)thiophen-2-yl]methyl}-2,4-dihydro-3H-1,2,4-triazol-3-one], the IC50 at recombinant human VAP-1 was 4.4 nM; in experiment [1] it was more than 100000 nM; in experiment [2], 1400 nM; in experiment [3] it was 690 nM.

Regarding `NC/C(=C\F)Cn1ncn(Cc2ccc(-c3cccc(-c4nnc[nH]4)c3)s2)c1=O` [Example 33, 2-[(2E)-2-(aminomethyl)-3-fluoroprop-2-en-1-yl]-4-(5-[3-(4H-1,2,4-triazol-3-yl)phenyl]thiophen-2-ylmethyl)-2,4-dihydro-3H-1,2,4-triazol-3-one], the IC50 on recombinant human VAP-1 is 0.8 nM; in experiment [1] it was more than 100000 nM; in experiment [2], 600 nM; in experiment [3] it was 790 nM.
